# Results taken from patent US8168647B2, “Vinblastine derivatives, their preparation, use and pharmaceutical compositions comprising the said derivatives” (Shanghai Institute of Materia Medica Chinese Academy of …, priority 2007, dated 2012).
# Columns and labels:
# [1] = system: human non-small cell lung cancer cell line A-549; experiment: In vitro cytotoxicity assay, Sulforhodamine B (SRB), A-549; type: cell-based; conditions: Homo sapiens, A549, 72 h, read-out: A549 (IC50, nM)
# [2] = system: human cervical carcinoma cell line Hela; experiment: In vitro cytotoxicity assay, Sulforhodamine B (SRB), Hela; type: cell-based; conditions: Homo sapiens, HeLa, 72 h, read-out: Hela (IC50, nM)
compound,measurement,setting,value
CC[C@]12C=CCN3CC[C@@]4(c5cc([C@@]6(C(=O)OC)C[C@@H]7C[C@@H](C(C)(F)F)CN(CCc8c6[nH]c6ccccc86)C7)c(OC)cc5N(C)[C@H]4C(O)(CNC(C)=O)[C@@H]1OC(C)=O)[C@@H]32 (stereo partly shown) [BM77],IC50,[1],> 1000 nM
same,IC50,[2],> 1000 nM
CCC1=C[C@@H]2CN(CCc3c([nH]c4ccccc34)[C@@](C(=O)OC)(c3cc4c(cc3OC)N(C)[C@H]3C(O)(COC(=O)C(C)(C)C)[C@H](OC(C)=O)[C@]5(CC)C=CCN6CC[C@]43C65)C2)C1 (stereo partly shown) [BM12],IC50,[1],576 nM
same,IC50,[2],95.9 nM
CCC1=C[C@@H]2CN(CCc3c([nH]c4ccccc34)[C@@](C(=O)OC)(c3cc4c(cc3OC)N(C)[C@H]3C(O)(CNC(=O)c5ccc(OC)cc5)[C@H](OC(C)=O)[C@]5(CC)C=CCN6CC[C@]43C65)C2)C1 (stereo partly shown) [BM45],IC50,[1],578 nM
same,IC50,[2],135 nM
CCC1=C[C@@H]2CN(CCc3c([nH]c4ccccc34)[C@@](C(=O)OC)(c3cc4c(cc3OC)N(C)[C@H]3C(O)(CNC(=O)c5ccccc5)[C@H](OC(C)=O)[C@]5(CC)C=CCN6CC[C@]43[C@@H]65)C2)C1 (stereo partly shown) [BM36],IC50,[1],87.4 nM
same,IC50,[2],16.4 nM
CCCCNC(=O)OCC1(O)[C@H](OC(C)=O)[C@]2(CC)C=CCN3CC[C@@]4(c5cc([C@@]6(C(=O)OC)C[C@@H]7C=C(CC)CN(CCc8c6[nH]c6ccccc86)C7)c(OC)cc5N(C)[C@@H]14)[C@@H]32 (stereo partly shown) [BM23],IC50,[1],> 1000 nM
same,IC50,[2],> 1000 nM
C=C(C)C(=O)NCC1(O)[C@H](OC(C)=O)[C@]2(CC)C=CCN3CC[C@@]4(c5cc([C@@]6(C(=O)OC)C[C@@H]7C=C(CC)CN(CCc8c6[nH]c6ccccc86)C7)c(OC)cc5N(C)[C@@H]14)[C@@H]32 (stereo partly shown) [BM32],IC50,[1],17.9 nM
same,IC50,[2],12.5 nM
CCC1=C[C@@H]2CN(CCc3c([nH]c4ccccc34)[C@@](C(=O)OC)(c3cc4c(cc3OC)N(C)[C@H]3C(O)(CNC(=O)C(C)C)[C@H](OC(C)=O)[C@]5(CC)C=CCN6CC[C@]43[C@@H]65)C2)C1 (stereo partly shown) [BM28],IC50,[1],101 nM
same,IC50,[2],75.8 nM
CCC1=C[C@@H]2CN(CCc3c([nH]c4ccccc34)[C@@](C(=O)OC)(c3cc4c(cc3OC)N(C)[C@H]3C(O)(CNC(=O)C(C)(C)C)[C@H](OC(C)=O)[C@]5(CC)C=CCN6CC[C@]43[C@@H]65)C2)C1 (stereo partly shown) [BM34],IC50,[1],338 nM
same,IC50,[2],73.5 nM
CCCCCOC(=O)NCC1(O)[C@H](OC(C)=O)[C@]2(CC)C=CCN3CC[C@@]4(c5cc([C@@]6(C(=O)OC)C[C@@H]7C=C(CC)CN(CCc8c6[nH]c6ccccc86)C7)c(OC)cc5N(C)[C@@H]14)[C@@H]32 (stereo partly shown) [BM56],IC50,[1],332 nM
same,IC50,[2],78.4 nM
CCC1=C[C@@H]2CN(CCc3c([nH]c4ccccc34)[C@@](C(=O)OC)(c3cc4c(cc3OC)N(C)[C@H]3[C@@]5(CNC(=O)O5)[C@H](OC(C)=O)[C@]5(CC)C=CCN6CC[C@]43[C@@H]65)C2)C1 [BM74],IC50,[1],710 nM
same,IC50,[2],342 nM
CCC1=C[C@@H]2CN(CCc3c([nH]c4ccccc34)[C@@](C(=O)OC)(c3cc4c(cc3OC)N(C)[C@H]3C(O)(CNC(=O)Oc5ccccc5)[C@H](OC(C)=O)[C@]5(CC)C=CCN6CC[C@]43[C@@H]65)C2)C1 (stereo partly shown) [BM61],IC50,[1],978 nM
same,IC50,[2],683 nM
CCC1=C[C@@H]2CN(CCc3c([nH]c4ccccc34)[C@@](C(=O)OC)(c3cc4c(cc3OC)N(C)[C@H]3C(O)(CNC(=O)C(F)(F)F)[C@H](OC(C)=O)[C@]5(CC)C=CCN6CC[C@]43[C@@H]65)C2)C1 (stereo partly shown) [BM26],IC50,[1],56.3 nM
same,IC50,[2],61.6 nM
CCC1=C[C@@H]2CN(CCc3c([nH]c4ccccc34)[C@@](C(=O)OC)(c3cc4c(cc3OC)N(C)[C@H]3C(O)(CNC(=O)OCc5ccc([N+](=O)[O-])cc5)[C@H](OC(C)=O)[C@]5(CC)C=CCN6CC[C@]43[C@@H]65)C2)C1 (stereo partly shown) [BM73],IC50,[1],780 nM
same,IC50,[2],432 nM
CCC1=C[C@@H]2CN(CCc3c([nH]c4ccccc34)[C@@](C(=O)OC)(c3cc4c(cc3OC)N(C)[C@H]3C(O)(CNC(=O)OC(C)C)[C@H](OC(C)=O)[C@]5(CC)C=CCN6CC[C@]43[C@@H]65)C2)C1 (stereo partly shown) [BM50],IC50,[1],162 nM
same,IC50,[2],26.2 nM
CCC1=C[C@@H]2CN(CCc3c([nH]c4ccccc34)[C@@](C(=O)OC)(c3cc4c(cc3OC)N(C)[C@H]3C(O)(COC(=O)NCC(C)C)[C@H](OC(C)=O)[C@]5(CC)C=CCN6CC[C@]43C65)C2)C1 (stereo partly shown) [BM22],IC50,[1],> 1000 nM
same,IC50,[2],> 1000 nM
CCC1=C[C@@H]2CN(CCc3c([nH]c4ccccc34)[C@@](C(=O)OC)(c3cc4c(cc3OC)N(C)[C@H]3C(O)(CNC(=O)Oc5ccc(OC)cc5)[C@H](OC(C)=O)[C@]5(CC)C=CCN6CC[C@]43[C@@H]65)C2)C1 (stereo partly shown) [BM65],IC50,[1],344 nM
same,IC50,[2],159 nM
CCC1=C[C@@H]2CN(CCc3c([nH]c4ccccc34)[C@@](C(=O)OC)(c3cc4c(cc3OC)N(C)[C@H]3C(O)(CNC(=O)Oc5ccc(F)c(F)c5)[C@H](OC(C)=O)[C@]5(CC)C=CCN6CC[C@]43[C@@H]65)C2)C1 (stereo partly shown) [BM63],IC50,[1],> 1000 nM
same,IC50,[2],264 nM
CCC1=C[C@@H]2CN(CCc3c([nH]c4ccccc34)[C@@](C(=O)OC)(c3cc4c(cc3OC)N(C)[C@H]3C(O)(CNC(=O)OCc5ccccc5[N+](=O)[O-])[C@H](OC(C)=O)[C@]5(CC)C=CCN6CC[C@]43[C@@H]65)C2)C1 (stereo partly shown) [BM72],IC50,[1],830 nM
same,IC50,[2],561 nM
CCC1=C[C@@H]2CN(CCc3c([nH]c4ccccc34)[C@@](C(=O)OC)(c3cc4c(cc3OC)N(C)[C@H]3C(O)(COC(=O)Cc5ccccc5)[C@H](OC(C)=O)[C@]5(CC)C=CCN6CC[C@]43[C@@H]65)C2)C1 (stereo partly shown) [BM15],IC50,[1],> 1000 nM
same,IC50,[2],228 nM
CCC1=C[C@@H]2CN(CCc3c([nH]c4ccccc34)[C@@](C(=O)OC)(c3cc4c(cc3OC)N(C)[C@H]3C(O)(COCc5ccc(OC)cc5)[C@H](OC(C)=O)[C@]5(CC)C=CCN6CC[C@]43C65)C2)C1 (stereo partly shown) [BM5],IC50,[1],> 1000 nM
same,IC50,[2],286 nM
CCC1=C[C@@H]2CN(CCc3c([nH]c4ccccc34)[C@@](C(=O)OC)(c3cc4c(cc3OC)N(C)[C@H]3C(O)(CNC(=O)OC5CCC5)[C@H](OC(C)=O)[C@]5(CC)C=CCN6CC[C@]43[C@@H]65)C2)C1 (stereo partly shown) [BM58],IC50,[1],97.3 nM
same,IC50,[2],62.9 nM
CCC1=C[C@@H]2CN(CCc3c([nH]c4ccccc34)[C@@](C(=O)OC)(c3cc4c(cc3OC)N(C)[C@H]3C(O)(CNC(=O)OCc5ccc(Cl)cc5)[C@H](OC(C)=O)[C@]5(CC)C=CCN6CC[C@]43[C@@H]65)C2)C1 (stereo partly shown) [BM71],IC50,[1],510 nM
same,IC50,[2],347 nM
CCC1=C[C@@H]2CN(CCc3c([nH]c4ccccc34)[C@@](C(=O)OC)(c3cc4c(cc3OC)N(C)[C@H]3C(O)(CNC(=O)OCc5cccc(Cl)c5)[C@H](OC(C)=O)[C@]5(CC)C=CCN6CC[C@]43[C@@H]65)C2)C1 (stereo partly shown) [BM70],IC50,[1],> 1000 nM
same,IC50,[2],> 1000 nM
CCC1=C[C@@H]2CN(CCc3c([nH]c4ccccc34)[C@@](C(=O)OC)(c3cc4c(cc3OC)N(C)[C@H]3C(O)(CNC(=O)OC5CCCCC5)[C@H](OC(C)=O)[C@]5(CC)C=CCN6CC[C@]43[C@@H]65)C2)C1 (stereo partly shown) [BM60],IC50,[1],226 nM
same,IC50,[2],75.9 nM
CCC1=C[C@@H]2CN(CCc3c([nH]c4ccccc34)[C@@](C(=O)OC)(c3cc4c(cc3OC)N(C)[C@H]3C(O)(CNC(C)=O)[C@H](OC(C)=O)[C@]5(CC)C=CCN6CC[C@]43[C@@H]65)C2)C1 (stereo partly shown) [BM25],IC50,[1],> 1000 nM
same,IC50,[2],477 nM
CCC1=C[C@@H]2CN(CCc3c([nH]c4ccccc34)[C@@](C(=O)OC)(c3cc4c(cc3OC)N(C)[C@H]3C(O)(COC(C)=O)[C@H](OC(C)=O)[C@]5(CC)C=CCN6CC[C@]43C65)C2)C1 (stereo partly shown) [BM6],IC50,[1],124 nM
same,IC50,[2],47.6 nM
